Data published in ChEMBL document CHEMBL1201862, “PubChem BioAssay data set” (2004).
Calls of active or inactive are those of the source.

How the values were obtained:
[1] = biological target: T1, Ubiquitin-conjugating enzyme E2 N (Homo sapiens, UniProt P61088); format: functional;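 note: Dose-response confirmation in a TR-FRET assay detecting UBC13-driven polyubiquitin chain formation, inhibition measured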
T1 sequence (P61088 whole entry): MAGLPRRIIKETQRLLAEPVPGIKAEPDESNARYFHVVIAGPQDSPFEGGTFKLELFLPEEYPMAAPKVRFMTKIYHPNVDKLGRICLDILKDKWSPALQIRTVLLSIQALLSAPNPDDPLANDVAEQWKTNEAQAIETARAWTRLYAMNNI

[2] = biological target: DNA repair protein RAD52 homolog (Homo sapiens, UniProt P43351); format: functional, biochemical
Chain of DNA repair protein RAD52 homolog (P43351 whole entry): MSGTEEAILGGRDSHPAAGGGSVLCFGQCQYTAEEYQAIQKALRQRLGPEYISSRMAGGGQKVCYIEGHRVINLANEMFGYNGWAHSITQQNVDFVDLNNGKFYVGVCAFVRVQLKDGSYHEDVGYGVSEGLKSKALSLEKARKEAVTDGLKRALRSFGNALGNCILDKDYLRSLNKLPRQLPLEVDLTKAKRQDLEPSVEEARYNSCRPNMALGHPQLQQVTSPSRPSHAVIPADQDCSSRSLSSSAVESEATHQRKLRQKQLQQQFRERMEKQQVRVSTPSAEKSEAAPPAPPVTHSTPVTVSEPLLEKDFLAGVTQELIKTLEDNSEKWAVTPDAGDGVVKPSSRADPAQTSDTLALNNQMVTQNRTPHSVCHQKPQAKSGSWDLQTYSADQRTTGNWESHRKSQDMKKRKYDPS

Paired box protein Pax-8 = Paired box protein Pax-8 (Homo sapiens, UniProt Q06710); experiment: inhibitors of PAX8-driven TPO luciferase reporter, dose response, RMG-I cells, cherry-pick (AID 687027); format: functional, cell-based;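 note: luciferase reporter driven by Pax8 target thyroperoxidase promoter measured by SteadyGlo luminescence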
Chain of Paired box protein Pax-8 (Q06710 whole entry): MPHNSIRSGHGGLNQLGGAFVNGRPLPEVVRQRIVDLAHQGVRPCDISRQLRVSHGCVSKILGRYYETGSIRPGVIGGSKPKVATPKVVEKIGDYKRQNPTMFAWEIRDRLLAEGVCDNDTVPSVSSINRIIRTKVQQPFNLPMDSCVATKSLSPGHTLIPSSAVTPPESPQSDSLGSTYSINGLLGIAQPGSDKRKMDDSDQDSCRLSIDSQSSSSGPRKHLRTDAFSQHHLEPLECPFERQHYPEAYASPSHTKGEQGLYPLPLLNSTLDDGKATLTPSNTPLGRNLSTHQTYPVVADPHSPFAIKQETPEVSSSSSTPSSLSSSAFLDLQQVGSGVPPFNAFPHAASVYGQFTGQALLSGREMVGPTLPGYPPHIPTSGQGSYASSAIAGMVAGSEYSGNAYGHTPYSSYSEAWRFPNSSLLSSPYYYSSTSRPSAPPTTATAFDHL

[3] = non-specific cell cytotoxicity, dose response, cytotoxicity control for PAX8 inhibitor project, plate reader, dry powder samples (AID 743021); format: functional, cell-based
[4] = cytotoxicity in OVCAR8 ovarian cancer cells, dose response, PAX8 project, cell-based, plate reader, dry powder samples (AID 743197); format: functional; conditions: OVCAR-8
[5] = biological target: T2, DNA repair and recombination protein RAD54-like (Homo sapiens, UniProt Q92698); experiment: inhibitors of human RAD54 branch migration, confirmation, biochemical, fluorescence, cherry-picked samples, dose series (AID 651657); format: functional
T2 sequence (Q92698 whole entry): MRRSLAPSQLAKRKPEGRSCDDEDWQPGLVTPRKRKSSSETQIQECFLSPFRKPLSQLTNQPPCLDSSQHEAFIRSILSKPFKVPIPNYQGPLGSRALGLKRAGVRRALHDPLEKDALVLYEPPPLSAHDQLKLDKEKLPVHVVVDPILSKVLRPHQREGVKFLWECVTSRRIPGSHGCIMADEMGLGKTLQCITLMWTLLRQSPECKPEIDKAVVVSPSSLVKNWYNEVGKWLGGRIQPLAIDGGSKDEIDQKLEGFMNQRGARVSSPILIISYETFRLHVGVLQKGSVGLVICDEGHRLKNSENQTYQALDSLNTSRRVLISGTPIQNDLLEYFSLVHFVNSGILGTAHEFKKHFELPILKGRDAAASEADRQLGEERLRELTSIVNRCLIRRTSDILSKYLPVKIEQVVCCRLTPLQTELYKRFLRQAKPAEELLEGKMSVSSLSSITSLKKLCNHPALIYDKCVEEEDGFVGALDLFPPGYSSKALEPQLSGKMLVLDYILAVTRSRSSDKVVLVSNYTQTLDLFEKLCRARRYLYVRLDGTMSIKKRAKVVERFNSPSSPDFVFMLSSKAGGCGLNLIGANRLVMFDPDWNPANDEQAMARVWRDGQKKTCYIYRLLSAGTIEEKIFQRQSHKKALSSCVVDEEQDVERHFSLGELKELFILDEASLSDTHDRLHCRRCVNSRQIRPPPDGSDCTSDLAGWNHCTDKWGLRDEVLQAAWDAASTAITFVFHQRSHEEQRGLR

[6] = biological target: Potassium channel subfamily K member 3 (Homo sapiens, UniProt O14649); experiment: TASK1 (KCNK3) potassium channel inhibitors, SAR follow-up, CHO cells, FluxOR thallium flux (AID 652212); format: functional
Chain of Potassium channel subfamily K member 3 (O14649 whole entry): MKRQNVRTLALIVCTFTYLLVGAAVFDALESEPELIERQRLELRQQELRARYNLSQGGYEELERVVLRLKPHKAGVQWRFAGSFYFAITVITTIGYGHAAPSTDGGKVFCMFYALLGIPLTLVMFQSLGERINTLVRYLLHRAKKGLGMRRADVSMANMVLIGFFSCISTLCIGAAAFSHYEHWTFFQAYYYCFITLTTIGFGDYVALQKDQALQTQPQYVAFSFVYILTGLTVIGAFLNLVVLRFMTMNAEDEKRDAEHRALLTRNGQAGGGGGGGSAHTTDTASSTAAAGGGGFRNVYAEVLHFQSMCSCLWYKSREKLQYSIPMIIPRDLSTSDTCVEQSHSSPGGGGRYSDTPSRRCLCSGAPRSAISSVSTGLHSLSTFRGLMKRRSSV

[7] = HepG2 cell cytotoxicity, dose response, cytotoxicity control, cherry-picks, set 5 (AID 1053118); format: functional, cell-based
INS1 = experiment: beta cell apoptosis inhibitors, cytokine rescue, dose response, luminescence, retest (AID 449756); format: functional, cell-based; conditions: Rattus norvegicus;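 note: cell death triggered by IL-1 beta plus TNF-alpha plus IFN-gamma mixture; protective hits raise ATP signal compared with cytokine alone wells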
[8] = Shn3 3'UTR reporter inhibitors, dose response, cell-based, Clone20 osteoblasts, firefly luciferase, cherry-picked (AID 624132); format: functional;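 note: firefly luciferase luminescence from reporter carrying the Shn3 3'UTR in osteoblasts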
[9] = HepG2 cell cytotoxicity, dose response, cytotoxicity control for Shn3 inhibitor project, CellTiter-Glo, cherry-picked (AID 624134); format: functional, cell-based
[10] = control 3'UTR Renilla luciferase suppression, dose response, counter-screen for Shn3 inhibitor project, cell-based, Clone20-Shn3RL, cherry-picked (AID 624133); format: functional
Albumin = Albumin (Bos taurus, UniProt P02769); experiment: Counterscreen for inhibitors of T-cell receptor (TCR)-CD3 interaction: Fluorescence-based biochemical high throughput dose response assay to identify inhibitors of T-cell receptor (TCR)-CD3 interaction using a TAMRA-labeled BSA probe.; format: functional
Chain of Albumin (P02769 whole entry): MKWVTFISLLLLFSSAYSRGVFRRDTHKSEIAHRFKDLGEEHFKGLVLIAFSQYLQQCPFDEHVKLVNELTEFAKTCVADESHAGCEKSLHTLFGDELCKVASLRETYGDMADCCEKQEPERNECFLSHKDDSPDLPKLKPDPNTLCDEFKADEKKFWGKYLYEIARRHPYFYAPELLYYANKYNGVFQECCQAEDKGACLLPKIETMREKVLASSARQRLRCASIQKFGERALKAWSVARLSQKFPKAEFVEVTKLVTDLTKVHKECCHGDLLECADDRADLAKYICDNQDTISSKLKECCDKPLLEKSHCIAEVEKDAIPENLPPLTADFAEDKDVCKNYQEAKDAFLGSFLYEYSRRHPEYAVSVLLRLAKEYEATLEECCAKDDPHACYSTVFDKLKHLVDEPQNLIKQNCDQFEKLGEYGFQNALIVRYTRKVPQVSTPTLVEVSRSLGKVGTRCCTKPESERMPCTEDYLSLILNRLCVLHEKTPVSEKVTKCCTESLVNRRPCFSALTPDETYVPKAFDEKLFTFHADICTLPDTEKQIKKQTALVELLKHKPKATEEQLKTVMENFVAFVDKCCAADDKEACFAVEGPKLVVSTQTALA

[11] = NIH-3T3 fibroblast cytotoxicity, dose response, cytotoxicity control, cell-based, fluorescence, Alamar Blue, secondary assay (AID 2327); format: functional;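 note: NIH-3T3 mouse fibroblasts cultured with fluconazole at 8 µg/mL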
[12] = HEp-2 cell cytotoxicity, dose response, cytotoxicity control for RSV inhibitor project, HTS (AID 2410); format: functional; conditions: human respiratory syncytial virus
[13] = C. albicans growth with fluconazole, confirmation, fluorescence, retest (AID 2467); format: functional, cell-based
[14] = biological target: T3, Heat shock factor protein 1 (Mus musculus, UniProt P38532); experiment: HSF1 potentiators in luciferase reporter cells, confirmation, cell-based, NIH3T3, luminescence, dose retest (AID 435004); format: functional;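 note: stress induced by proteasome inhibitor MG132 added 30 min after compound; luciferase reporter driven by HSF1 response element in NIH3T3 cells; actives raise luminescence as potentiators of the MG132 stress response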
T3 sequence (P38532 whole entry): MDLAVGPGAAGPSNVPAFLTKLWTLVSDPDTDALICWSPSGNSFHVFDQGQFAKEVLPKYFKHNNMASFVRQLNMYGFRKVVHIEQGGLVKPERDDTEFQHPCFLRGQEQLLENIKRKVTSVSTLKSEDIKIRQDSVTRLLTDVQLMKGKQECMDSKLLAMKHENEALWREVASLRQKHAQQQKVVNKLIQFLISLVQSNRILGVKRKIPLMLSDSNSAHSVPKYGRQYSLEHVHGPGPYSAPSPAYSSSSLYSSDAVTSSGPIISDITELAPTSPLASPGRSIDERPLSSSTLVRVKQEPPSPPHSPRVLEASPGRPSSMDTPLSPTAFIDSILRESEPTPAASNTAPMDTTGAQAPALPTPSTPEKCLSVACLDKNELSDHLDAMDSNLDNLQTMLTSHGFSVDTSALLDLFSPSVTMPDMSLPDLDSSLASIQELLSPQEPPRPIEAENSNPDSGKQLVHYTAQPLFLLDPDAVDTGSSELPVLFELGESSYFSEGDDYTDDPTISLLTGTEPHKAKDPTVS

[15] = HepG2 cell cytotoxicity, dose response, cytotoxicity control, ATP luminescence, cherry-pick, set 6 (AID 1053125); format: functional, cell-based
cells [16] = conditions: A549
cells [17] = conditions: HEK293

Compound: CCC[C@@H](CN1CCC[C@H]1CN1C(N)=NC[C@H]1CC(C)C)N1C[C@@H](Cc2ccccc2)N(CCCC2CCCC2)C1=N
- IC50 [1]: > 20 µM (inactive)
- AC50 [2]: 19.5 µM (active)

Compound: COc1ccccc1C#Cc1ccc2c(c1)O[C@@H](CN(C)Cc1ccncc1)[C@H](C)CN([C@@H](C)CO)S2(=O)=O
- AC50 (Paired box protein Pax-8): 2.84 µM (active)
- AC50 [3]: 33.2 µM (active)
- AC50 [4]: 33 µM (active)

Compound: Cc1ccc(-c2nc(NCCCN(C)C)c3ccccc3n2)cc1
- AC50 [5]: 10.6 µM (active)
- AC50 [2]: 7.08 µM (active)

Compound: CCOc1ccccc1NC(=O)c1cccc(NC(=O)c2ccc(C(F)(F)F)cc2)c1
- IC50 [6]: 0.22 µM (active)

Compound: CO[C@@H]1CN(C)C(=O)c2cc(NC(=O)Nc3ccc(Cl)c(Cl)c3)ccc2OC[C@H](C)NC[C@@H]1C
- AC50 [7]: > 52 µM (inactive)

Compound: OC(c1cc(-c2ccc(C(F)(F)F)cc2)nc(C(F)(F)F)c1)C1CCCCN1 (centres undefined) [ENPIROLINE]
- AC50 (INS1): 6.95 µM (active)
- AC50 [8]: 4.73 µM (active)
- AC50 [9]: 6.6 µM (active)
- AC50 [10]: 3.85 µM (active)
- AC50 (Paired box protein Pax-8): 17.9 µM (active)
- AC50 [3]: 41.7 µM (active)

Compound: O=C(N/N=C/c1cc(Cl)cc([N+](=O)[O-])c1O)c1cccc(S(=O)(=O)N2CCOCC2)c1
- IC50 (Albumin): > 94.1 µM (inactive)

Compound: CNC(=S)NNC(=O)c1cccn(Cc2ccc(Cl)cc2Cl)c1=O
- IC50 (Albumin): > 94.1 µM (inactive)

Compound: N#CC(C#N)=C1C=CC=CN1/C(=C\c1ccccc1)C(=O)c1cccs1
- EC50 [11]: 14.3 µM (active)
- CC50 [12]: 21.6 µM (active)
- EC50 [13]: > 38 µM (not active)
- EC50 [14]: 4.04 µM (active)
- AC50 [15]: 49.7 µM (active)
- AC50 (cells [16]): > 52 µM (inactive)
- AC50 (cells [17]): 22.1 µM (active)
